# According to US8084479B2, “Thiazole compounds and methods of use” (Amgen Inc., priority 2006, dated 2011):
# Target: PKBα (Homo sapiens, UniProt P31749)
# Test: PKB kinase assay (P33-labeled ATP, peptide substrate, filter plate)
# Type: biochemical
# Settings: PKBα enzyme (full length or kinase domain with pleckstrin domain deleted)
# Text: The kinase assay for evaluating PKB activity comprises active PKB enzymes, a PKB specific substrate, and P^33-labeled ATP. […] The phosphorylated substrate was captured by a phosphocellulose membrane filter plate (MLLIPORE) and measured by a Wallac Microbeta liquid scintillation counter (Perkin Elmer).
# Sequence of PKBα (P31749 118-480 limits assumed): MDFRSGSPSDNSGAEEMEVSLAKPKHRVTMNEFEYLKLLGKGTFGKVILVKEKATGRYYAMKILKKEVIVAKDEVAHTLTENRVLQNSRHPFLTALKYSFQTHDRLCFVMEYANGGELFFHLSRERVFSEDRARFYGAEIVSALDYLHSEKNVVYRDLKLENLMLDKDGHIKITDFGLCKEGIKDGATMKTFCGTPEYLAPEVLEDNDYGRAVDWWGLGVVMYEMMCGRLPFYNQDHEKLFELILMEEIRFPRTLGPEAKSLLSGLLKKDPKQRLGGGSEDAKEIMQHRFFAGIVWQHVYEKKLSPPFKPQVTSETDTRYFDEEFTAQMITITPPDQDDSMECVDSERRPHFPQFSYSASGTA
row,SMILES,IC50 [nM]
1,"N[C@H](CNc1nc(C(F)(F)CO)c(-c2ccc3cnccc3c2)s1)Cc1ccc(C(F)(F)F)cc1 [Example 134, 2-(2-((S)-2-Amino-3-(4-(trifluoromethyl)phenyl)-propylamino)-5-(isoquinolin-6-yl)thiazol-4-yl)-2,2-difluoroethanol]",50 to 1000
2,"NC(=O)c1nc(NC[C@@H](N)Cc2ccc(C(F)(F)F)cc2)sc1-c1ccc2cnccc2c1 [Example 121, 2-((S)-2-amino-3-(4-(trifluoromethyl)phenyl)propylamino)-5-(isoquinolin-6-yl)thiazole-4-carboxamide]",1000 to 10000
3,"N[C@H](CNc1ncc(-c2ccc3[nH]c(=O)sc3c2)s1)Cc1c[nH]c2ccccc12 [Example 35, 6-(2-((S)-2-amino-3-(1H-indol-3-yl)propylamino)thiazol-5-yl)benzo[d]thiazol-2(3H)-one]",50 to 1000
4,"N[C@H](CNc1ncc(-c2ccc3c(c2)CNC3=O)s1)Cc1ccc(Cl)s1 [Example 239, 3,5-(2-((S)-2-amino-3-(5-chlorothiophen-2-yl)propylamino)thiazol-5-yl)isoindolin-1-one]",1000 to 10000
5,"CNCc1nc(NC[C@@H](N)Cc2ccc(C(F)(F)F)cc2)sc1-c1ccc2cnccc2c1 [Example 56, N—((S)-2-amino-3-(4-(trifluoromethyl)phenyl)propyl)-5-(isoquinolin-6-yl)-4-((methylamino)methyl)thiazol-2-amine]",50 to 1000
6,"C[C@@H](Nc1ncc(-c2ccc3[nH]c(=O)oc3c2)s1)[C@@H](N)Cc1ccc(C(F)(F)F)cc1 [Example 231, 6-(2-((2R,3S)-3-amino-4-(4-(trifluoromethyl)phenyl)butan-2-ylamino)thiazol-5-yl)benzo[d]oxazol-2(3H)-one]",50 to 1000
7,"COc1ccc(C[C@H](N)CNc2ncc(-c3ccc4c(c3)CC(=O)N4)s2)cc1 [Example 67, 5-(2-((S)-2-amino-3-(4-methoxyphenyl)propylamino)thiazol-5-yl)indolin-2-one]",50 to 1000
8,"COc1ccc(CC(N)CNc2ncc(-c3ccc4c(c3)CC(=O)N4)s2)cc1F (centres unmarked) [Example 130, 5-(2-(2-Amino-3-(3-fluoro-4-methoxyphenyl)propylamino)thiazol-5-yl)indolin-2-one]",50 to 1000
9,"N[C@H](CNc1nc(C2CCCO2)c(-c2ccc3cnccc3c2)s1)Cc1ccc(Cl)cc1 (stereo partly drawn) [Example 196, N—((S)-2-amino-3-(4-chlorophenyl)propyl)-5-(isoquinolin-6-yl)-4-(tetrahydrofuran-2-yl)thiazol-2-amine]",50 to 1000
10,"NC(=O)c1ccc(-c2cnc(NC[C@@H](N)Cc3ccc(C(F)(F)F)cc3)s2)cc1 [Example 49, (S)-4-(2-(2-amino-3-(4-(trifluoromethyl)phenyl)propylamino)thiazol-5-yl)benzamide]",1000 to 10000
11,"COc1ccc(CC(N)CNc2ncc(-c3ccc4[nH]c(=O)oc4c3)s2)cc1F (centres unmarked) [Example 129, 6-(2-(2-Amino-3-(3-fluoro-4-methoxyphenyl)propylamino)-thiazol-5-yl)benzo[d]oxazol-2(3H)-one]",50 to 1000
12,"N[C@H](CNc1nc(C(=O)NCCO)c(-c2ccc3cnccc3c2)s1)Cc1ccc(C(F)(F)F)cc1 [Example 119, 2-((S)-2-Amino-3-(4-(trifluoromethyl)phenyl)-propylamino)-N-(2-hydroxyethyl)-5-(isoquinolin-6-yl)thiazole-4-carboxamide]",1000 to 10000
13,"Cn1c(=O)[nH]c2ccc(-c3cnc(NCC(N)Cc4ccc(C(F)(F)F)c(F)c4F)s3)cc21 (centres unmarked) [Example 191, 6-(2-(2-amino-3-(2,3-difluoro-4-(trifluoromethyl)phenyl)propylamino)thiazol-5-yl)-1-methyl-1H-benzo[d]imidazol-2(3H)-one]",50 to 1000
14,"N[C@H](CNc1nc(C#CC2(O)CCCC2)c(-c2ccc3cnccc3c2)s1)Cc1ccc(C(F)(F)F)cc1 [Example 148, 1-(2-(2-((S)-2-amino-3-(4-(trifluoromethyl)phenyl)propylamino)-5-(isoquinolin-6-yl)thiazol-4-yl)ethynyl)cyclopentanol]",50 to 1000
15,"C[C@@H](c1ccccc1)[C@H](N)CNc1ncc(-c2ccc3cnccc3c2)s1 [Example 91, N-((2S,3S)-2-Amino-3-phenylbutyl)-5-(isoquinolin-6-yl)thiazol-2-amine]",50 to 1000
16,"N[C@H](CNc1ncc(-c2ccc3cnccc3c2)s1)Cc1ccc(NC(=O)OCc2ccccc2)cc1 [Example 223, Benzyl 4-((S)-2-amino-3-(5-(isoquinolin-6-yl)thiazol-2-ylamino)propyl)phenylcarbamate]",1000 to 10000
17,"N[C@H](CNc1ncc(-c2ccc3cnccc3c2)s1)Cc1cc(F)cc(F)c1 [Example 161, N—((S)-2-amino-3-(3,5-difluorophenyl)propyl)-5-(isoquinolin-6-yl)thiazol-2-amine]",50 to 1000
18,"CCC[C@@H](c1ccc(C(F)(F)F)cc1)[C@H](N)CNc1ncc(-c2ccc3c(c2)CC(=O)N3)s1 [Example 156, 5-(2-((2S,3S)-2-amino-3-(4-(trifluoromethyl)phenyl)hexylamino)thiazol-5-yl)indolin-2-one]",50 to 1000
19,"N#Cc1ccc(-c2cnc(NC[C@@H](N)Cc3ccc(C(F)(F)F)cc3)s2)cc1F [Example 166, 4-(2-((S)-2-amino-3-(4-(trifluoromethyl)phenyl)propylamino)thiazol-5-yl)-2-fluorobenzonitrile]",50 to 1000

# Second part, the compound after the results:
row,IC50 [nM],SMILES
1,< 50,"NC(CNc1ncc(-c2ccc3cnccc3c2)s1)Cc1ccc(C(F)(F)F)cc1F (centres unmarked) [Example 177, N-(-2-amino-3-(2-fluoro-4-(trifluoromethyl)phenyl)propyl)-5-(isoquinolin-6-yl)thiazol-2-amine]"
2,< 50,"N[C@H](CNc1ncc(-c2cc3c(cc2F)NC(=O)C3)s1)Cc1ccc(C(F)(F)F)cc1 [Example 214, 5-(2-((S)-2-amino-3-(4-(trifluoromethyl)phenyl)propylamino)thiazol-5-yl)-6-fluoroindolin-2-one]"
3,< 50,"N[C@H](CNc1ncc(-c2ccc3[nH]c(=O)oc3c2)s1)Cc1ccc(C(F)(F)F)nc1 [Example 172, 6-(2-((S)-2-amino-3-(6-(trifluoromethyl)pyridine-3-yl)propylamino)thiazol-5-yl)benzo[d]oxazol-2(3H)-one]"
4,< 50,"C[C@@H](Nc1ncc(-c2ccc3cnccc3c2)s1)[C@@H](N)Cc1ccc(C(F)(F)F)cc1 [Example 230, N-((2R,3S)-3-amino-4-(4-(trifluoromethyl)phenyl)butan-2-yl)-5-(isoquinolin-6-yl)thiazol-2-amine]"
5,< 50,"COCc1nc(NC[C@@H](N)Cc2ccc(C(F)(F)F)cc2)sc1-c1ccc2cnccc2c1 [Example 13, N—((S)-2-amino-3-(4-(trifluoromethyl)phenyl)propyl)-5-(isoquinolin-6-yl)-4-(methoxymethyl)thiazol-2-amine]"
6,< 50,"N[C@H](CNc1ncc(-c2ccc3c(c2F)CC(=O)N3)s1)Cc1ccc(C(F)(F)F)cc1 [Example 224, 5-(2-((S)-2-amino-3-(4-(trifluoromethyl)phenyl)propylamino)thiazol-5-yl)-4-fluoroindolin-2-one]"
7,< 50,"N[C@H](CNc1ncc(-c2ccc3[nH]ncc3c2)s1)Cc1ccc(Cl)cc1 [Example 4, N—((S)-2-amino-3-(4-chlorophenyl)propyl)-5-(1H-indazol-5-yl)thiazol-2-amine]"
8,< 50,"N[C@H](CNc1ncc(-c2ccc3cnccc3c2)s1)[C@@H](CO)c1ccc(C(F)(F)F)cc1 [Example 159, (2S,3S)-3-amino-4-(5-(isoquinolin-6-yl)thiazol-2-ylamino)-2-(4-(trifluoromethyl)phenyl)butan-1-ol]"
9,< 50,"COC[C@@H](c1ccc(C(F)(F)F)cc1)[C@H](N)CNc1ncc(-c2ccc3c(c2)CC(=O)N3)s1 [Example 241, 5-(2-((2S,3S)-2-amino-4-methoxy-3-(4-(trifluoromethyl)phenyl)butylamino)thiazol-5-yl)indolin-2-one]"
10,< 50,"Cc1n[nH]c2ccc(-c3sc(NC[C@@H](N)Cc4ccc(C(F)(F)F)cc4)nc3CO)cc12 [Example 11, (2-((S)-2-amino-3-(4-(trifluoromethyl)phenyl)propylamino)-5-(3-methyl-1H-indazol-5-yl)thiazol-4-yl)methanol]"
11,< 50,"COc1cc(C[C@H](N)CNc2ncc(-c3ccc4[nH]c(=O)n(C)c4c3)s2)cnc1C(F)(F)F [Example 175, 6-(2-((S)-2-amino-3-(5-methoxy-6-(trifluoromethyl)pyridin-3-yl)propylamino)thiazol-5-yl)-1-methyl-1H-benzo[d]imidazol-2(3H)-one]"
12,< 50,"CNc1cc2cc(-c3cnc(NC[C@@H](N)Cc4ccc(C(F)(F)F)cc4)s3)ccc2cn1 [Example 138, 6-(2-((S)-2-amino-3-(4-(trifluoromethyl)phenyl)propylamino)thiazol-5-yl)-N-methylisoquinolin-3-amine]"
13,< 50,"N[C@H](CNc1ncc(-c2ccc3[nH]c(=O)oc3c2)s1)[C@@H](CO)c1ccc(C(F)(F)F)cc1 [Example 160, 6-(2-((2S,3S)-2-amino-4-hydroxy-3-(4-(trifluoromethyl)phenyl)butylamino)thiazol-5-yl)benzo[d]oxazol-2(3H)-one]"
14,< 50,"NC(CNc1ncc(-c2ccc3c(c2)CC(=O)N3)s1)Cc1ccc(C(F)(F)F)c(F)c1 (centres unmarked) [Example 179, 5-(2-(-2-amino-3-(3-fluoro-4-(trifluoromethyl)phenyl)propylamino)thiazol-5-yl)indolin-2-one]"
15,< 50,"N[C@H](CNc1ncc(-c2ccc3[nH]c(=O)oc3c2)s1)Cc1ccc(Cl)c(F)c1 [Example 84, 6-(2-((S)-2-Amino-3-(4-chloro-3-fluorophenyl)propylamino)thiazol-5-yl)benzo[d]oxazol-2(3H)-one]"
16,< 50,"N[C@H](CNc1ncc(-c2ccc3[nH]c(=O)sc3c2)s1)Cc1ccc(C(F)(F)F)cc1 [Example 43, 6-(2-((S)-2-amino-3-(4-(trifluoromethyl)phenyl)propylamino)thiazol-5-yl)benzo[d]thiazol-2(3H)-one]"
